{
  "source": "patent US20260166045A1",
  "about": "“COMBINATION THERAPY COMPRISING GSPT1-DIRECTED MOLECULAR GLUE DEGRADERS AND PI3K/AKT/mTOR PATHWAY INHIBITORS” (Monte Rosa Therapeutics, Inc., priority 2022, published 2026)",
  "test_in_all_cases": "CellTiter-Glo 2.0 cell viability, 7x7 combination dose response matrix, synergy scoring",
  "assay_type_in_all_cases": "cell-based",
  "key": {"[1]": {"tested_on": "NCI-H2023 cell line", "conditions": "NCI-H2023, first compound 1.05-500 nM"}, "[2]": {"tested_on": "CAL51 cell line", "conditions": "CAL51, first compound 4.1-1000 nM"}, "[3]": {"tested_on": "CAL51 mutant cell line", "conditions": "first compound 4.1-1000 nM"}, "[4]": {"tested_on": "MDA-MB-157 cell line", "conditions": "first compound 4.1-1000 nM"}, "[5]": {"tested_on": "ABC-1 cell line", "conditions": "ABC-1, first compound 1.05-500 nM"}, "[6]": {"tested_on": "NCI-H1155 cell line", "conditions": "first compound 1.05-500 nM"}, "[7]": {"conditions": "combined with GNE-477 21-10000 nM"}, "[8]": {"conditions": "combined with KU-0063794 21-10000 nM"}, "[9]": {"conditions": "combined with M2698 21-10000 nM"}, "[10]": {"conditions": "combined with Alpelisib 41-10000 nM"}, "[11]": {"conditions": "combined with Capivasertib 41-10000 nM"}, "[12]": {"conditions": "combined with Everolimus 41-10000 nM"}, "[13]": {"conditions": "combined with GNE-477 41-10000 nM"}, "[14]": {"conditions": "combined with KU-0063794 41-10000 nM"}, "[15]": {"conditions": "combined with M2698 41-10000 nM"}, "[16]": {"conditions": "combined with Everolimus 4.1-1000 nM"}},
  "data": [
    {"smiles": "O=C1CCC(N2Cc3ccc(COC(=O)Nc4cc(OC(F)(F)F)ccc4F)cc3C2=O)C(=O)N1", "note": "(stereo not drawn) [Compound 1-1, [2-(2,6-dioxopiperidin-3-yl)-3-oxo-2,3-dihydro-1H-isoindol-5-yl]methyl N-[2-fluoro-5-(trifluoromethoxy)phenyl]carbamate]", "values": [
      {"measurement": "Mean Bliss synergy score", "setting": "[1]; [7]", "result": 16.57},
      {"measurement": "Mean Loewe synergy score", "setting": "[1]; [7]", "result": 4.95},
      {"measurement": "Mean Bliss synergy score", "setting": "[1]; [8]", "result": 16.57},
      {"measurement": "Mean Loewe synergy score", "setting": "[1]; [8]", "result": 7.27},
      {"measurement": "Mean Bliss synergy score", "setting": "[1]; [9]", "result": 10.90},
      {"measurement": "Mean Loewe synergy score", "setting": "[1]; [9]", "result": 9.33},
      {"measurement": "Mean Bliss synergy score", "setting": "[2]; [10]", "result": 14.61},
      {"measurement": "Mean Loewe synergy score", "setting": "[2]; [10]", "result": 11.03},
      {"measurement": "Mean Bliss synergy score", "setting": "[2]; [11]", "result": 32.32},
      {"measurement": "Mean Loewe synergy score", "setting": "[2]; [11]", "result": 28.73},
      {"measurement": "Mean Bliss synergy score", "setting": "[2]; [12]", "result": 29.55},
      {"measurement": "Mean Loewe synergy score", "setting": "[2]; [12]", "result": 34.51},
      {"measurement": "Mean Bliss synergy score", "setting": "[2]; [13]", "result": 12.11},
      {"measurement": "Mean Loewe synergy score", "setting": "[2]; [13]", "result": 12.09},
      {"measurement": "Mean Bliss synergy score", "setting": "[2]; [14]", "result": 20.80},
      {"measurement": "Mean Loewe synergy score", "setting": "[2]; [14]", "result": 19.07},
      {"measurement": "Mean Bliss synergy score", "setting": "[2]; [15]", "result": 18.29},
      {"measurement": "Mean Loewe synergy score", "setting": "[2]; [15]", "result": 22.14},
      {"measurement": "Mean Bliss synergy score", "setting": "[3]; [10]", "result": 4.76},
      {"measurement": "Mean Loewe synergy score", "setting": "[3]; [10]", "result": 0.35},
      {"measurement": "Mean Bliss synergy score", "setting": "[3]; [11]", "result": "−0.44"},
      {"measurement": "Mean Loewe synergy score", "setting": "[3]; [11]", "result": "−3.66"},
      {"measurement": "Mean Bliss synergy score", "setting": "[3]; [16]", "result": "−3.14"},
      {"measurement": "Mean Loewe synergy score", "setting": "[3]; [16]", "result": 4.91},
      {"measurement": "Mean Bliss synergy score", "setting": "[3]; [13]", "result": 2.54},
      {"measurement": "Mean Loewe synergy score", "setting": "[3]; [13]", "result": "−2.04"},
      {"measurement": "Mean Bliss synergy score", "setting": "[3]; [14]", "result": 2.83},
      {"measurement": "Mean Loewe synergy score", "setting": "[3]; [14]", "result": "−1.46"},
      {"measurement": "Mean Bliss synergy score", "setting": "[3]; [15]", "result": "−2.37"},
      {"measurement": "Mean Loewe synergy score", "setting": "[3]; [15]", "result": "−2.73"},
      {"measurement": "Mean Bliss synergy score", "setting": "[4]; [10]", "result": "−2.43"},
      {"measurement": "Mean Loewe synergy score", "setting": "[4]; [10]", "result": 2.54},
      {"measurement": "Mean Bliss synergy score", "setting": "[4]; [11]", "result": 3.83},
      {"measurement": "Mean Loewe synergy score", "setting": "[4]; [11]", "result": 7.36},
      {"measurement": "Mean Bliss synergy score", "setting": "[4]; [12]", "result": 1.61},
      {"measurement": "Mean Loewe synergy score", "setting": "[4]; [12]", "result": 8.84},
      {"measurement": "Mean Bliss synergy score", "setting": "[4]; [13]", "result": 1.72},
      {"measurement": "Mean Loewe synergy score", "setting": "[4]; [13]", "result": 6.42},
      {"measurement": "Mean Bliss synergy score", "setting": "[4]; [14]", "result": 2.25},
      {"measurement": "Mean Loewe synergy score", "setting": "[4]; [14]", "result": 6.64},
      {"measurement": "Mean Bliss synergy score", "setting": "[4]; [15]", "result": 4.89},
      {"measurement": "Mean Loewe synergy score", "setting": "[4]; [15]", "result": 7.65},
      {"measurement": "Mean Bliss synergy score", "setting": "[5]; [7]", "result": 17.46},
      {"measurement": "Mean Loewe synergy score", "setting": "[5]; [7]", "result": 13.06},
      {"measurement": "Mean Bliss synergy score", "setting": "[5]; [8]", "result": 23.16},
      {"measurement": "Mean Loewe synergy score", "setting": "[5]; [8]", "result": 12.88},
      {"measurement": "Mean Bliss synergy score", "setting": "[5]; [9]", "result": 17.47},
      {"measurement": "Mean Loewe synergy score", "setting": "[5]; [9]", "result": 14.22},
      {"measurement": "Mean Bliss synergy score", "setting": "[6]; [7]", "result": 1.97},
      {"measurement": "Mean Loewe synergy score", "setting": "[6]; [7]", "result": 4.77},
      {"measurement": "Mean Bliss synergy score", "setting": "[6]; [8]", "result": 0.38},
      {"measurement": "Mean Loewe synergy score", "setting": "[6]; [8]", "result": 3.70},
      {"measurement": "Mean Bliss synergy score", "setting": "[6]; [9]", "result": 1.48},
      {"measurement": "Mean Loewe synergy score", "setting": "[6]; [9]", "result": 5.14}
    ]}
  ]
}
